Results as given in patent publication US6548544B1, “Method of treatment of priapism without raising systemic blood pressure” (The National University of Singapore, priority 1999, dated 2003).

How the values were obtained:
[1] = tested on: Pharmacologically Induced Prolonged Erection (Pipe); test: Effect on papaverine- and phenoxybenzamine-induced prolonged erection (PIPE), penile length, baboons; assay type: in vivo, baboon
Procedure: (§1) Six male baboons weighing between 8 kg and 12 kg were used for the experiment. The animals were sedated with ketamine and anaesthetised with intravenous pentobarbitone injected through an indwelling venous catheter. Drugs were injected into the right corpora cavornosa at the mid-third of the shaft using a 29G needle and 1 ml syringe. Blood pressure was monitored through a cannulated femoral artery connected to the transducer. A measuring tape was used to measure penile length visually from a marked point at the base of the penis to the tip of urethral orifice. Changes in penile length were recorded for a period of 100 min after injection.
Intracavernous injection of papaverine (40 mg) or phenoxybenzamine (3 mg) which produced maximal penile length within 20 and 40 min were repeated one week later and prostaglandin A2 was given at the peak time of the turgidity.
(§2) In baboons, intracavernous injection of papaverine (40 mg) or phenoxybenzamine (3 mg) produced a 130% increase in penile length within […] after administration (Table 1). This increase in penile length lasted for more than 100 min. This was repeated one week later and when prostaglandin A2 was injected intracavernosally at the maximum rigidity 20 min after the drug administration, the latter produced a marked reduction in penile length and within 40 min of injection, the penile size reduced to the original state of rugosity (Table 1). The fall in systemic blood pressure produced by prostaglandin A2 ranged from 8 to 16 mmHg. Each value reported in Table 1 represents the mean of six experiments.

[2] = design: species or system baboon; conditions: in vivo
Procedure: as §1, §2

[3] = tested on: prolonged erection induced by 60 mg of papaverine; test: Effect on papaverine-induced prolonged erection in human patients and volunteers; assay type: in vivo; conditions: for Mean Decrease in Length of Turgid Penis %: erection induced by 60 mg papaverine
Procedure: In human patients and human volunteers, intracavernous injection of prostaglandin A2 (150 μg) was tested on prolonged erection (lasting more than 4 hours) induced by 60 mg of papaverine.
This was corrected by an additional injection of prostaglandin A2 (100 μg). The fall in mean systemic blood pressure ranged from 7 to 10 mmHg (Table 2).

[4] = tested on: human corpora cavernosa muscle; test: Contractile response of human corpus cavernosum smooth muscle in vitro; assay type: cell-based
Description: FIG. 2 is a graphical representation showing contractile response of prostaglandin A2 on human corpus cavernosum smooth muscle.
Prostaglandin A2 is 8.2 times stronger than noradrenaline in contracting human corpora cavernosa muscle in vitro and 500, 2.5 and 50 times stronger than dopamine, adrenaline and aramine, respectively (FIG. 2).

[5] = tested on: cavernous nerve stimulation-induced intracavernous pressure increase; test: Intracavernous pressure (ICP) response to cavernous nerve stimulation, in vivo rat model; design: species or system Sprague Dawley rats; conditions: for Cavernous pressure (mmHg) recording: nerve stimulation
Procedure: The cavernous nerve is a relatively well-defined nerve that exits from the major pelvic ganglion and carries a large component of the autonomic input to the penis. Through electrical stimulation of this nerve, the changes in the peripheral neural mechanisms controlling penile erection can be observed in the animal model. The responses are recorded as concomitant alterations in the ICP following stimulation of this nerve branch.

[6] = rat, in vivo
Procedure: METHOD: Male Sprague Dawley rats (500-700 g) were anaesthetized with sodium pentobarbital (45 mg/kg, intraperitoneal) and the trachea intubated (14G jelco catheter) for respiration. The left external jugular vein and the right common carotid artery were cannulated (PE 50 tubing) for drug infusion and blood pressure monitoring respectively. Through a lower median abdominal incision, the lateral prostate was exposed and the fascia around the cavernous nerve separated through fine dissection. The exposed nerve was suspended on bipolar hook electrode for stimulation. Through transverse perineal incision, a 27G needle was inserted into the penile crus for pressure recording. Systemic and intracavernous pressures were measured by transducers (Ugo Basile) and recorded with MacLab analogue-digital converter (AD instruments). To initiate the experiment, the cavernous nerve was stimulated with square wave pulses of 1 millisecond duration at 20 Hertz and 2 volts with the resting ICP recording.

## CCCCC[C@H](O)/C=C/[C@H]1C=CC(=O)[C@@H]1C/C=C\CCCC(=O)O [AS-8, prostaglandin A2]
[1]; papaverine 40 mg followed by AS-8 100 μg 20 min later, 1 min after injection
  Mean Change in Penile Length (% of Control): 32%
[1]; papaverine 40 mg followed by AS-8 100 μg 20 min later, 2 min after injection
  Mean Change in Penile Length (% of Control): 38%
[1]; papaverine 40 mg followed by AS-8 100 μg 20 min later, 5 min after injection
  Mean Change in Penile Length (% of Control): 65%
[1]; papaverine 40 mg followed by AS-8 100 μg 20 min later, 10 min after injection
  Mean Change in Penile Length (% of Control): 130%
[1]; papaverine 40 mg followed by AS-8 100 μg 20 min later, 20 min after injection
  Mean Change in Penile Length (% of Control): 142%
[1]; papaverine 40 mg followed by AS-8 100 μg 20 min later, 40 min after injection
  Mean Change in Penile Length (% of Control): 15%
[1]; papaverine 40 mg followed by AS-8 100 μg 20 min later, 60 min after injection
  Mean Change in Penile Length (% of Control): 0%
[1]; papaverine 40 mg followed by AS-8 100 μg 20 min later, 80 min after injection
  Mean Change in Penile Length (% of Control): 0%
[1]; papaverine 40 mg followed by AS-8 100 μg 20 min later, 100 min after injection
  Mean Change in Penile Length (% of Control): 0%
[1]; phenoxybenzamine 3 mg followed by AS-8 100 μg 20 min later, 1 min after injection
  Mean Change in Penile Length (% of Control): 7%
[1]; phenoxybenzamine 3 mg followed by AS-8 100 μg 20 min later, 2 min after injection
  Mean Change in Penile Length (% of Control): 15%
[1]; phenoxybenzamine 3 mg followed by AS-8 100 μg 20 min later, 5 min after injection
  Mean Change in Penile Length (% of Control): 20%
[1]; phenoxybenzamine 3 mg followed by AS-8 100 μg 20 min later, 10 min after injection
  Mean Change in Penile Length (% of Control): 38%
[1]; phenoxybenzamine 3 mg followed by AS-8 100 μg 20 min later, 20 min after injection
  Mean Change in Penile Length (% of Control): 85%
[1]; phenoxybenzamine 3 mg followed by AS-8 100 μg 20 min later, 40 min after injection
  Mean Change in Penile Length (% of Control): 10%
[1]; phenoxybenzamine 3 mg followed by AS-8 100 μg 20 min later, 60 min after injection
  Mean Change in Penile Length (% of Control): 0%
[1]; phenoxybenzamine 3 mg followed by AS-8 100 μg 20 min later, 80 min after injection
  Mean Change in Penile Length (% of Control): 0%
[1]; phenoxybenzamine 3 mg followed by AS-8 100 μg 20 min later, 100 min after injection
  Mean Change in Penile Length (% of Control): 0%
[1]; prostaglandin A2 intracavernosally at maximum rigidity 20 min after papaverine or phenoxybenzamine
  time until penile size reduced to the original state of rugosity: ≤ 40 min
[2]
  fall in systemic blood pressure: 8-16 mmHg
[3]; Patients (2), 150 μg intracavernous, 1 min after AS-8 injection
  Mean Decrease in Length of Turgid Penis %: 10%
[3]; Patients (2), 150 μg intracavernous, 5 min after AS-8 injection
  Mean Decrease in Length of Turgid Penis %: 50%
[3]; Patients (2), 150 μg intracavernous, 10 min after AS-8 injection
  Mean Decrease in Length of Turgid Penis %: 80%
[3]; Patients (2), 150 μg intracavernous, 20 min after AS-8 injection
  Mean Decrease in Length of Turgid Penis %: 90%
[3]; Patients (2), 150 μg intracavernous, 30 min after AS-8 injection
  Mean Decrease in Length of Turgid Penis %: 100%
[3]; Volunteers (3), 150 μg intracavernous, 1 min after AS-8 injection
  Mean Decrease in Length of Turgid Penis %: 10%
[3]; Volunteers (3), 150 μg intracavernous, 5 min after AS-8 injection
  Mean Decrease in Length of Turgid Penis %: 30%
[3]; Volunteers (3), 150 μg intracavernous, 10 min after AS-8 injection
  Mean Decrease in Length of Turgid Penis %: 75%
[3]; Volunteers (3), 150 μg intracavernous, 20 min after AS-8 injection
  Mean Decrease in Length of Turgid Penis %: 80%
[3]; Volunteers (3), 150 μg intracavernous, 30 min after AS-8 injection
  Mean Decrease in Length of Turgid Penis %: 95%
[3]; patients and volunteers, erection induced by 60 mg papaverine for 4 hours or more, 150 μg intracavernous
  subjects with maximal reduction in rigidity and penile length to the rugose state within 30 min after injection: four out of five subjects
[3]; volunteers, first injection 150 μg, corrected by additional injection of 100 μg
  relapse of tumescence after first injection: In one volunteer, there was a relapse of tumescence within 60 min
[4]; versus adrenaline
  times stronger than adrenaline in contracting human corpora cavernosa muscle: 2.5 times
[4]; versus aramine
  times stronger than aramine in contracting human corpora cavernosa muscle: 50 times
[4]; versus dopamine
  times stronger than dopamine in contracting human corpora cavernosa muscle: 500 times
[4]; versus noradrenaline
  times stronger than noradrenaline in contracting human corpora cavernosa muscle: 8.2 times
[5]
  prevention of intracavernous pressure increase to cavernous nerve stimulation: prevents, in a dose-dependent manner
[5]; intracavernous AS-8, all the doses tested, Analysis of Variance
  cavernous pressure elevations to subsequent nerve stimulations: significantly suppressed
[5]; AS-8 1 μg intracavernous, 2 Min after, Control before 45.76 ± 1.46
  Cavernous pressure (mmHg) recording: 26.48 ± 4.62 mmHg
[5]; AS-8 1 μg intracavernous, 5 Min after, Control before 45.76 ± 1.46
  Cavernous pressure (mmHg) recording: 22.48 ± 3.21 mmHg
[5]; AS-8 1 μg intracavernous, 10 Min after, Control before 45.76 ± 1.46
  Cavernous pressure (mmHg) recording: 26.94 ± 4.77 mmHg
[5]; AS-8 1 μg intracavernous, 20 Min after, Control before 45.76 ± 1.46
  Cavernous pressure (mmHg) recording: 24.42 ± 6.87 mmHg
[5]; AS-8 1 μg intracavernous, 30 Min after, Control before 45.76 ± 1.46
  Cavernous pressure (mmHg) recording: 22.40 ± 5.34 mmHg
[5]; AS-8 1 μg intracavernous, 30 Sec after, Control before 45.76 ± 1.46
  Cavernous pressure (mmHg) recording: 33.83 ± 3.09 mmHg
[5]; AS-8 2 μg intracavernous, 2 Min after, Control before 40.60 ± 2.58
  Cavernous pressure (mmHg) recording: 22.29 ± 9.96 mmHg
[5]; AS-8 2 μg intracavernous, 5 Min after, Control before 40.60 ± 2.58
  Cavernous pressure (mmHg) recording: 26.42 ± 4.42 mmHg
[5]; AS-8 2 μg intracavernous, 10 Min after, Control before 40.60 ± 2.58
  Cavernous pressure (mmHg) recording: 24.49 ± 7.39 mmHg
[5]; AS-8 2 μg intracavernous, 20 Min after, Control before 40.60 ± 2.58
  Cavernous pressure (mmHg) recording: 31.84 ± 5.54 mmHg
[5]; AS-8 2 μg intracavernous, 30 Min after, Control before 40.60 ± 2.58
  Cavernous pressure (mmHg) recording: 29.62 ± 4.62 mmHg
[5]; AS-8 2 μg intracavernous, 30 Sec after, Control before 40.60 ± 2.58
  Cavernous pressure (mmHg) recording: 35.29 ± 3.29 mmHg
[5]; AS-8 4 μg intracavernous, 2 Min after, Control before 46.40 ± 1.59
  Cavernous pressure (mmHg) recording: 16.07 ± 1.00 mmHg
[5]; AS-8 4 μg intracavernous, 5 Min after, Control before 46.40 ± 1.59
  Cavernous pressure (mmHg) recording: 14.90 ± 1.71 mmHg
[5]; AS-8 4 μg intracavernous, 10 Min after, Control before 46.40 ± 1.59
  Cavernous pressure (mmHg) recording: 15.00 ± 6.71 mmHg
[5]; AS-8 4 μg intracavernous, 20 Min after, Control before 46.40 ± 1.59
  Cavernous pressure (mmHg) recording: 18.30 ± 6.40 mmHg
[5]; AS-8 4 μg intracavernous, 30 Min after, Control before 46.40 ± 1.59
  Cavernous pressure (mmHg) recording: 17.05 ± 5.86 mmHg
[5]; AS-8 4 μg intracavernous, 30 Sec after, Control before 46.40 ± 1.59
  Cavernous pressure (mmHg) recording: 25.91 ± 5.57 mmHg
[6]
  mean systemic blood pressure change: concurrent reduction in mean systemic blood pressure
